Reference: patent publication US5672707A (priority 1991, dated 1997)
Like-named read-outs stand apart in the source and are kept apart here.

Experiments:
brain synaptosomes = experiment: Cholesterol content in brain synaptosomes, old rats; type: in vivo; conditions: for Cholesterol content of brain synaptosomes, old rats: 20 days course; for Cholesterol content in synaptosomes (% from total lipid content): old rats (18 month), 20 days application
old rats = experiment: Passive avoidance test in old rats; type: in vivo; conditions: for Passive avoidance latency in 7 days after training: old rats (18 month), 20 days application, 1 mg/kg (piracetam 250 mg/kg)
Experimental: (§1) The influence of drugs on reflex conditioning in rats was studied by the passive avoidance test in conditions of 50% acquisition. The effect of the compound was estimated by the increase of the relative number of learned animals with respect to that of control group. […] The other reference drug--noothropic agent piracetam--was given in the dose 250 mg/kg 60 min before training. Amnestic syndrome was stimulated by 20 days application of Sc at the daily dose of 1 mg/kg intraperitoneally. […] The passive avoidance test was performed within 24 hours after the last application of test preparations.
Improvement of animal performance was accompanied by the normalizing of brain synaptosomes microviscosity under the action of all the substances tested. […] The latter observation indicates to the possible interference of amiridine and substance Vo into the processes of atherogenesis in old animals.

mice [1] = experiment: Psychotropic activity test: arecoline induced hyperkynesis; type: in vivo; conditions: intraperitoneally, dose 1/20 of LD
mice [2] = experiment: Psychotropic activity test: motor activity; type: in vivo; conditions: intraperitoneally, dose 1/20 of LD
mice [3] = experiment: Step-down test, scopolamine induced amnesia; type: in vivo
Experimental: (§2) Psychoneurotropic activity of the declared compounds and their influence on learning and memory were observed using unbred male (18-20 g) mice and 180-200 g) rats, held at standard conditions (room temperature 21°-22° C., 12-hours lighting schedule, food and water ad libitum).

rats [4] = experiment: Passive avoidance test in normal rats, 50% acquisition; type: in vivo; conditions: for change in vivo at 0.1 mg/kg: Rattus norvegicus, 20 min, read-out: Increase of the number of correct trails (% to control). Passive avoidance test (rats)
Experimental: as §2, §1

in vivo = conditions: for LD50: in vivo, ip
Experimental: as §2
Acute toxicity was studied by the method of Kerber with intra peritoneal drug injection.

[5] = test system: membranes of brain synaptosomes; experiment: Microviscosity of brain synaptosome membranes, old rats; type: in vivo; conditions: old rats (18 month), 20 days application
Experimental: Microviscosity of membranes of brain synaptosomes was studied with the use of molecular probe pirren. Brain tissue homogenization and preparation of synaptosomes were performed by the method of De Robertis.

rats [6] = experiment: Passive avoidance test on the model of amnestic syndrome (multiple scopolamine injection); type: in vivo
Experimental: The influence of drugs on reflex conditioning in rats was studied by the passive avoidance test in conditions of 50% acquisition. The effect of the compound was estimated by the increase of the relative number of learned animals with respect to that of control group. […] The passive avoidance test was performed within 24 hours after the last application of test preparations.

[7] = test system: membranes of brain synaptosomes; experiment: Microviscosity of brain synaptosome membranes, amnestic syndrome model; type: in vivo, rats; conditions: for Microviscosity changes in % to control: rats, scopolamine 20 days, then drug 10 days, brain synaptosomes
[8] = biological target: T1, Acetylcholinesterase, enzyme from human erythrocytes (Homo sapiens, UniProt P22303); experiment: Acetylcholinesterase inhibition, spectrophotometric technique of Ellman; type: biochemical; conditions: enzyme from human erythrocytes, Table 5
T1 construct: on the enzyme from human erythrocytes; from tissue; host or cells: human erythrocytes
Experimental: Acetylcholinesterase inhibition under the action of preparations was assessed by the spectrophotometric technique of Ellman on the enzyme from human erythrocytes.

rat adipocytes [9] = experiment: Lipid content in incubation medium after incubation of adipocytes; type: cell-based; conditions: for FFA/TG in incubation medium / PL/CL in incubation medium / PL/TG in incubation medium: Table 12
Experimental: (§3) Lipid regulative activity of the declared compounds--derivatives of 9-amino acridine--were evaluated in vitro[…] using rat adipocytes. Adipocytes were separated from adipose tissue of testis appendages of adult male rats. Lipid composition analysis was performed by the method of thin-layer chromatography.
(§4) Quantitative analysis of phospholipids (PL), mono- and diacylglycerides (MDG), triacylglycerides (TG), free fatty acids (FFA), free cholesterol (FCL), and methyl esters of fatty acids (MEFA) was performed by the method of spectrophotometry.

rat adipocytes [10] = experiment: Lipid composition of adipocytes after incubation with compounds; type: cell-based; conditions: for FFA/TG in adipocytes / PL/CL in adipocytes / PL/TG in adipocytes: cells, Table 11; for FFAc/FFAm / PLc/PLm: distribution between cells and incubation medium, Table 13
Experimental: as §3, §4

K channels = experiment: Ionic permeabilities of excitable membranes, voltage clamp in the Ranvier node; type: cell-based, frog
[11] = intraperitoneal injection, Table 5, read-out: LD50 (mg/kg) by Kerber
[12] = rats, scopolamine 1 mg/kg 20 days, then drug 10 days (1 mg/kg; piracetam 250 mg/kg)
[13] = intraperitoneal injection, Table 5

T1 sequence (P22303-2 with tags, fused parts or gaps limits assumed): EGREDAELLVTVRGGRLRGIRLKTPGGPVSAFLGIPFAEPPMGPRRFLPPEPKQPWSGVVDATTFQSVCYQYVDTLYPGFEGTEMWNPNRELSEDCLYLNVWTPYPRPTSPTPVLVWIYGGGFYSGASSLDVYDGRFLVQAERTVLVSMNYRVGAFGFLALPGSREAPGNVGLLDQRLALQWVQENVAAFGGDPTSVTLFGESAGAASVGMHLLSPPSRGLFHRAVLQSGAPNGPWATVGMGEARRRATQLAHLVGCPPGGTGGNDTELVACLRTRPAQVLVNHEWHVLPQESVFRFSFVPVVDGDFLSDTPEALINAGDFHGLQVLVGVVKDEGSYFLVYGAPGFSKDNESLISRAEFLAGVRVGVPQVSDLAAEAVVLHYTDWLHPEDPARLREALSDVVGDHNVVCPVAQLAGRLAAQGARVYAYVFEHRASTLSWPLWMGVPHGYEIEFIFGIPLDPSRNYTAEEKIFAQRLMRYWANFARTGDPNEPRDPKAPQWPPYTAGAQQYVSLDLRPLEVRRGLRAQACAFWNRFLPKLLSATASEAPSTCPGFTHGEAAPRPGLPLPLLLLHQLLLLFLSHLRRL

## Nc1c2c(nc3c1CCC3)CCCC2 [Amiridine, amiridine, reference compound]
Brain synaptosomes
  Cholesterol content of brain synaptosomes, old rats: normalized the cholesterol content of brain synaptosomes
  Cholesterol content in synaptosomes (% from total lipid content): 33.2 ± 0.8 % from total lipid content
Old rats
  Passive avoidance latency in 7 days after training: 116.1 ± 16.9 s
Mice [1]
  Increase of duration of arecoline induced hyperkynesis (% to control): 100 % to control
Mice [2]
  Motor activity increment (% to control): 45 % to control
Mice [3]
  Antiamnestic activity in Step-down test (% of mice with latency > cut off): 33 % of mice
Rats [4]; ip, rats, 0.1 mg/kg i.p. 20 min before training, piracetam 250 mg/kg 60 min before training
  change in vivo at 0.1 mg/kg: 70%
In vivo; [11]
  LD50: 52 ± 3.4 mg/kg
In vivo; read-out: LD
  LD50: 35 mg/kg
[5]
  Microviscosity changes (% to control): 101.7 % to control
Rats [6]; [12]
  Passive avoidance latency: 149.0 ± 11.7 s
[7]
  Microviscosity changes in % to control: 105.0 % to control

## NC(=O)CN1CCCC1=O [Piracetam, piracetam, reference compound]
Old rats
  Passive avoidance latency in 7 days after training: 120.0 ± 24.3 s
Mice [1]
  Increase of duration of arecoline induced hyperkynesis (% to control): 0 % to control
Mice [2]
  Motor activity increment (% to control): 0 % to control
Rats [4]
  change in vivo at 0.1 mg/kg: 63%
In vivo; [11]
  LD50: 1000 mg/kg
Rats [6]; [12]
  Passive avoidance latency: 162.3 ± 13.3 s
[8]
  Acetylcholinesterase inhibition IC50 (M): no effect

## CN1[C@@H]2C[C@@H](OC(=O)[C@H](CO)c3ccccc3)C[C@H]1[C@@H]1O[C@@H]12 [Scopolamine (Sc), scopolamine]
Rats [6]; [12]
  Passive avoidance latency: 70.4 ± 10.5 s

## Nc1c2c(nc3ccccc13)CCCC2 [Tacrine, tacrine, reference compound]
Brain synaptosomes
  Cholesterol content in synaptosomes (% from total lipid content): 39.7 ± 1.4 % from total lipid content
Old rats
  Passive avoidance latency in 7 days after training: 163.4 ± 16.5 s
Mice [1]
  Increase of duration of arecoline induced hyperkynesis (% to control): 88 % to control
Mice [2]
  Motor activity increment (% to control): 0 % to control
Mice [3]
  Antiamnestic activity in Step-down test (% of mice with latency > cut off): 33 % of mice
Rats [4]; ip
  change in vivo at 0.1 mg/kg: 25%
In vivo; [11]
  LD50: 35.5 ± 1.8 mg/kg
In vivo; read-out: LD
  LD50: 52 mg/kg
[5]
  Microviscosity changes (% to control): 101.4 % to control
Rats [6]; 1 mg/kg
  Passive avoidance latency: 169.0 ± 14.8 s
[7]
  Microviscosity changes in % to control: 97.2 % to control

## Cc1ccc(CNc2c3c(nc4ccccc24)CC(C)(C)CC3O)c(C)c1 (centres unmarked) [VIj]
Mice [1]
  Increase of duration of arecoline induced hyperkynesis (% to control): 13 % to control
Mice [2]
  Motor activity increment (% to control): 55 % to control
Rat adipocytes [9]
  FFA/TG in incubation medium: 1.03
  PL/CL in incubation medium: 0.65
  PL/TG in incubation medium: 0.62
Mice [3]
  Antiamnestic activity in Step-down test (% of mice with latency > cut off): 0 % of mice
Rats [4]; normal rats
  Performance of normal rats in passive avoidance test: statistically significantly improved performance of normal rats
Rats [4]; rats, 0.1 mg/kg i.p. 20 min before training, piracetam 250 mg/kg 60 min before training
  Increase of the number of correct trails (% to control). Passive avoidance test (rats): 40 % to control
In vivo; [13]
  LD50 (mg/kg) by Kerber: 33.4 ± 3.2 mg/kg
Rat adipocytes [10]
  FFA/TG in adipocytes: 1.08
  PL/CL in adipocytes: 0.80
  PL/TG in adipocytes: 0.85
  FFAc/FFAm: 0.95
  PLc/PLm: 1.24
K channels
  The shift of activation region of K channels: substance lowest concentrations in M producing measureable shift of 1-2 mV: no effect
[8]; Acetylcholinesterase inhibition IC50 (M)
  IC50: 2.5e-06 M

## CCCCNc1c2c(nc3ccccc13)CC(C)(C)CC2=O [Vo]
Rat adipocytes [9]
  Ejection of triacylglycerides into external medium: enhanced ejection of triacylglycerides into external medium
Rats [6]; 10 days application course
  Performance in passive avoidance test, amnestic syndrome: improved performance in passive avoidance test in the 10 days application course to the level achieved under the treatment with reference drugs
Rat adipocytes [10]
  Change of lipid composition in adipocytes: Accumulation of phospholipids in a cell
  Content of methyl esters of fatty acids in adipocytes: sharp decreases
  PL/TG relations and cell cholesterol level: increase PL/TG relations and decrease cell cholesterol level
  Potency of effect on lipid composition of adipocytes: most potent effect on lipid composition of adipocytes
[7]; 10 days application course
  Microviscosity of brain synaptosomes, amnestic syndrome: normalizing of microviscosity of brain synaptosomes

## CCCCNc1c2c(nc3ccccc13)CC(C)(C)CC2=O [Vp]
Brain synaptosomes
  Cholesterol content of brain synaptosomes, old rats: normalized the cholesterol content of brain synaptosomes
  Cholesterol content in synaptosomes (% from total lipid content): 30.1 ± 2.4 % from total lipid content
Old rats; 20 days course, age 18 months
  Performance of old rats in passive avoidance test: improved performance of old rats (age 18 months) in passive avoidance test more significantly than in 6 month old adult rats
Old rats
  Passive avoidance latency in 7 days after training: 169.4 ± 10.5 s
Mice [1]
  Increase of duration of arecoline induced hyperkynesis (% to control): 0 % to control
Mice [2]
  Motor activity increment (% to control): 69 % to control
Rat adipocytes [9]
  FFA/TG in incubation medium: 0.92
  PL/CL in incubation medium: 0.65
  PL/TG in incubation medium: 0.52
Mice [3]
  Antiamnestic activity in Step-down test: pronounced antiatonestic activity, comparable with that of amiridine and tacrine
  Antiamnestic activity in Step-down test (% of mice with latency > cut off): 25 % of mice
Rats [4]; ip
  change in vivo at 0.1 mg/kg: 25%
In vivo; [13]
  LD50 (mg/kg) by Kerber: 200.0 ± 21.9 mg/kg
[5]
  Microviscosity changes (% to control): 97.9 % to control
Rats [6]; [12]
  Passive avoidance latency: 170.3 ± 14.9 s
Rat adipocytes [10]
  Lipid-regulative effect compared with probucol: not inferior
  FFA/TG in adipocytes: 1.03
  PL/CL in adipocytes: 0.83
  PL/TG in adipocytes: 0.89
  FFAc/FFAm: 0.93
  PLc/PLm: 1.41
K channels
  Capability to induce the shift of potassium permeability voltage dependency: most pronounced capability to induce the shift of potassium permeability voltage dependency
[7]
  Microviscosity changes in % to control: 93.8 % to control
